Reference: patent US11643415B1, “Rabeximod compounds” (CYXONE AB, priority 2021, dated 2023)
In brackets after ≈: the same amount, converted by molar mass. Structures can show the parent of a compound that is named as a salt. Marks after values point to notes of the source that are not given here.

Assays:
[1] = Dynamic vapor sorption (hygroscopicity / moisture sorption); format: physicochemical
Procedure: Differences in hygroscopicity (moisture uptake) of the various forms of a solid material provided a measure of their relative stability at increasing relative humidity. Moisture sorption isotherms of small samples were obtained using a DVS-1 system from Surface Measurement Systems (London, UK); this instrument is suitable for use with a few milligrams of sample, with an accuracy of 0.1 μg. The relative humidity was varied during sorption-desorption-sorption (40-95-0-40% RH) at a constant temperature of 25° C. Weight equilibration per step was set at dm/dt <0.0002 mg/min for a minimum of 1 hour or maximum of 6 hours. Afterwards the sample was measured by HT-XRPD.
The hygroscopicity was classified according to the European Pharmacopoeia Hygroscopicity classification. Water uptake percentage at 25° C./80%RH (24h) is:
Change in mass <0.2%—Non-hygroscopic
Change in mass >2% & <15%—Moderately hygroscopic
Change in mass >15%—Very hygroscopic

[2] = Qualitative solubility determination in water at room temperature (visual, water added until dissolved); format: physicochemical; details: for Solubility in water: RT, estimated by adding water to the salt until dissolved; for Dissolution in water (in words): room temperature
Procedure: The solubility of the salts in water at RT was estimated by adding water to the salt until the salt dissolved. […] From the TGMS data it was estimated whether the salts are stochiometric hydrates or not.
The solubility of a selection of salts from the salt screen was estimated at room temperature in water. To approximately 2 mg of salt, solvent aliquots were added in steps of 50 μl until the material was dissolved as observed visually by the naked eye.

[3] = Quantitative (thermodynamic) solubility determination, shake-flask, LCMS against calibration line; format: physicochemical; details: for solubility at 4 h: 25 °C, thermodynamic from solid; for Solubility in water: room temperature, suspensions stirred for 18 h, LCMS
Procedure: The thermodynamic solubility of Rabeximod free base (Form 1) was determined in 3 different USP buffers (50 mM) ranging from pH 1.2 to pH 7.4 and in water (Exp. ID: QSA21-24) by the shake-flask method at 25° C. (
Table ). Approximately 30 mg was added to approximately 1 ml of the selected buffer and the resulting suspension was equilibrated at RT for 4 hours under continuous stirring. After 15 min and after 4 h of stirring, the pH of the solution was recorded. Upon completion of the equilibration time, the suspensions were centrifuged. The solution was filtered and diluted before LCMS analysis to determine the API concentration in solution. The residue was dried under vacuum and the obtained dried solids were analyzed by XRPD. A standard LC calibration curve was prepared, and the diluted mother liquors were measured to determine the API concentration.
The solubility of the freebase (Form 1) and salts prepared by scale-up was determined in water at room temperature. Suspensions were stirred for 18 h after which the liquid phase was isolated and measured by LCMS against a calibration line. The solids were dried and measured by XRPD to determine the solid form. The lowest solubility was determined for the freebase (Form 1). The signal was lower than the calibration line and therefore the solubility was determined to be <0.005 mg/ml. […] The experimental details are described in table 5.
Table 5. Experimental details and results of the solubility determination for Rabeximod free base Form 1) as well as salt Mes1 in water and in 3 buffers with pH range 1.2-7.4. The pH of the solutions after 15 minutes and 4 hours are reported. The solubility was determined after 4h equilibration by measuring the liquid phase with LCMS against a calibration line.

[4] = Pharmacokinetic characterization after i.v. and p.o. administration to male CD-1 mice; format: in vivo; details: for CL as % of mouse liver blood flow: liver blood flow 120 ml/min/kg
Procedure: IV formulations were prepared on the day of dosing. The formulations were prepared by weighing the compound into brown glass vial; on the day of dosing ClinOleic 20% intravenous fat emulsion ([…], Tamro) was added into tubes (1,5 mg/mL in 20% ClinOleic). Formulations were homogenized 5 minutes before dosing. IV formulations were administered within 5 hours after preparation.
PO formulations were prepared day before administration. The formulations were prepared by formulating the test items in PO vehicle (6 mg/ml in 0.45% (v/v) Tween 80-0.11% (w/v) sodium carboxy methylcellulose (CMC) in tap water). The suspensions were mixed with vortex and stored refrigerated (+4° C.) over night. On the day of dosing formulations were homogenized 15 minutes before dosing.
Naïve animals were used in the study (see Table 6). They were housed in individually ventilated (IVC)-cages in groups of six mice. The cages were provided with aspen bedding (4HP and PM90L, Tapvei, Estonia) and paper strands (Sizzlenest, Datesand, UK) as nesting material, and a paper pulp cabin and red polycarbonate cylinder (Datesand, UK) as cage enrichment. The temperature (22±2° C.), humidity (55±10%) and air exchange rate (75 times/h) of the IVC-cages and 12/12-h light/dark cycle (500 lux lighting on at 6 a.m., 1.5 lux lighting […].) of the animal holding room were automatically controlled and maintained. Animals were allowed to acclimatize to the site for at least five days prior to the study. Animals had ad libitum access to food (SDS diets, RM1 (E) 801002, Special Diets Services, UK) and tap water at all times, and their welfare was assured with daily observations.
Study compounds were administered via the specified route and the times of dosing and blood sampling were recorded. Within 30 min following the sampling, the blood was centrifuged for plasma separation (room temperature; 10 min; 2700 G). The plasma samples were transferred into plastic tubes, frozen and stored at −20° C. until analysis. Clinical signs and general behavior of the animals were recorded, when necessary.
The pharmacokinetic parameters were calculated using Phoenix 64 (Build 6.4.0.768) WinNonlin (version 6.4) software, using non-compartmental methods (NCA). Nominal doses were used for all animals. The terminal phase half-life (T1/2) was calculated by least-squares regression analysis of the terminal linear part of the log concentration—time curve. The area under the plasma concentration—time curve (AUC) was determined with the linear trapezoidal rule for increasing values and log trapezoidal rule for decreasing values up to the last measurable concentration (AUC0-last), and extrapolation of the terminal elimination phase to infinity was used when possible; the following criteria were used:
Minimum of 3 points (not including Cmax) used to calculate lambda (with R^2 adjusted >0.85)
T1/2 shorter than the time-span used to calculate lambda
The maximum plasma concentration (Cmax) and the time to reach Cmax (tmax) were derived directly from the plasma concentration data.

[5] = Accelerated aging conditions (AAC), solid form remeasured by XRPD; format: physicochemical; details: 3 days at 40° C. and 75% RH
Procedure: All solids were exposed to AAC (40° C./75% RH for 3 days) and remeasured by HT-XRPD. After that, 750 μl of a selected solvent was added. The vials were transferred to a Crystal16™ parallel crystallizer and the suspensions were stirred at 750 rpm at 50° C. for 18h after which the suspensions were subjected to centrifugation and the solids were isolated, dried under vacuum (50° C., 5 mbar, 18 h) and analyzed by HT-XRPD. The experimental conditions and results are shown below in Table 1 and Table 2 for the first and second set of experiments, respectively. The obtained XRPD patterns for the crystallinesalts made are shown in FIGS. 1 (HCl), 2 (Mao) and 3 (Mes).
Experimental conditions and results of the hydrochloride and malonic acid salt crystallization experiments. In all experiments, 750 μl of solvent was used. Counterion (Cl) abbreviations denote pure counterions whereas counterions with a number denote novel salt forms. After subjecting suspensions of API:Cl to thermocycles, the solids were isolated, dried (5 mbar, 50° C., 18 h) and analyzed by XRPD. The liquid phases were dried, and the resulting solids were analyzed by XRPD. Most solids were subjected to AAC (40° C., 75% RH, 3 days) and remeasured by XRPD.

[6] = i.v., 3.00 mg/kg, male CD1 mice
[7] = male, CD-1, mouse, plasma, po, 30 mg/kg, male CD1 mice
[8] = p.o., 30.0 mg/kg, male CD1 mice
[9] = male, CD-1, mouse, plasma, iv, 3 mg/kg, male CD1 mice

Structure (SMILES) | Solubility in water [2] | AUC0-inf [4, 6] | T1/2 [4, 6] | Time of peak plasma concentration (tmax) [4, 6] | Vss [4, 6] | clearance [4, 6] | mean C0 [4, 6] | mean Cmax [4, 6] | CL as % of mouse liver blood flow ([4]; i.v., 3.00 mg/kg) | AUC0-last [4, 8] | Time of peak plasma concentration (tmax) [4, 8] | mean Cmax [4, 8] | Salt form after AAC [5] | other results
Cc1cc2nc3c4cc(Cl)ccc4n(CC(=O)NCCN(C)C)c3nc2cc1C [Rabeximod Mes] | 13300 µg/mL | 2320 ng·h/mL | 9.80 h | 0.0833 h | 15.9 L/kg | 21.5 mL/min/kg | 507 ng/mL | 383 ng/mL | 17.9% | 11 600 h*ng/ml | 2.00 h | 707 ng/mL | Mes | Water uptake ([1]; DVS, 25° C.): 12.2%; Form after DVS ([1]; sorption-desorption-sorption 40-95-0-40% RH, 25° C., HT-XRPD): Mes1; Solubility ([3]; medium HCl, pH buffer 1.2, 4 h equilibration, listed as Mes (TCS35)): 0.014 mg/mL (≈ 34.2 µM); Solubility ([3]; medium phosphate buffer, pH buffer 6.5, 4 h equilibration, listed as Mes (TCS35)): 0.042 mg/mL (≈ 102 µM); Solubility ([3]; medium water, listed as Mes (TCS35)): 13.26 mg/mL (≈ 32300 µM); solubility at 4 h ([3]; phosphate buffer, pH 7.4, aqueous buffer, medium phosphate buffer, pH buffer 7.4, 4 h equilibration): 3 µg/mL (≈ 7.32 µM); Solubility in water ([3]; listed as Mes1): 13300 µg/mL (≈ 32400 µM); half-life [4, 7]: 8.93 h
Cc1cc2nc3c4cc(Cl)ccc4n(CC(=O)NCCN(C)C)c3nc2cc1C [Rabeximod Mao] | 5500 to 10200 µg/mL | 1870 ng·h/mL | 8.43 h | 0.0833 h | 16.9 L/kg | 26.8 mL/min/kg | 390 ng/mL | 355 ng/mL | 22.3% | 11 400 h*ng/ml | 0.17 h | 1140 ng/mL | Mao | Solubility ([3]; medium water, listed as Mao (TCS161)): 5.26 mg/mL (≈ 12800 µM); Solubility in water ([3]; listed as Mao1): 5300 µg/mL (≈ 12900 µM)
Cc1cc2nc3c4cc(Cl)ccc4n(CC(=O)NCCN(C)C)c3nc2cc1C [Rabeximod, 9-Chloro-2,3-dimethyl-6-(N,N-dimethylaminoethylamino-2-oxoethyl)-6H-indolo-[2,3-b]quinoxaline] | – | 681 ng·h/mL | – | – | 49.4 L/kg | 73.4 mL/min/kg | – | 150 ng/mL | 61.2% | – | 4.00 h | – | – | Physical stability upon exposure to relative humidity ([1]; relative humidity values between 0-95%): remained physically stable; Hygroscopicity classification (European Pharmacopoeia) ([1]; water uptake at 25° C./80%RH): slightly hygroscopic; Dissolution in water (in words) [2]: close to insoluble in water; Dissolution in water (in words) ([2]; listed as freebase): no sign of dissolution; solubility at 4 h ([3]; HCl buffer, pH 1.2, simulated gastric fluid, medium HCl, pH buffer 1.2, 4 h equilibration): 13 µg/mL (≈ 31.7 µM); Solubility ([3]; medium phosphate buffer, pH buffer 6.5, 4 h equilibration, listed as Form 1 (SM)): 0.005* mg/ml; Solubility ([3]; medium phosphate buffer, pH buffer 7.4, 4 h equilibration, listed as Form 1 (SM)): <LOD; Solubility ([3]; medium water, listed as Form 1 (SM)): <0.005 mg/mL; Solubility in water ([3]; listed as freebase): < 5 µg/mL; Tmax ([4]; male, CD-1, mouse, plasma, iv, 3 mg/kg, i.v., 3.00 mg/kg, male CD1 mice, read-out: Time of peak plasma concentration (tmax)): 5 min; C0 [4, 9]: 351 ng/mL; half-life [4, 9]: 8.99 h; AUC(0-t) [4, 7]: 8330 ng·h/mL; Cmax [4, 7]: 728 ng/mL
Cc1cc2nc3c4cc(Cl)ccc4n(CC(=O)NCCN(C)C)c3nc2cc1C [Rabeximod HCl] | 2000 to 5700 µg/mL | 2220 ng·h/mL | 8.43 h | 0.0833 h | 14.2 L/kg | 22.6 mL/min/kg | 600 ng/mL | 454 ng/mL | 18.8% | 13 700 h*ng/ml | 4.00 h | 893 ng/mL | HCl | Solubility ([3]; medium water, listed as HCI (TCS160)): 5.45 mg/mL; Solubility in water ([3]; listed as HCl1): 5500 µg/mL
